Reference: PubChem BioAssay AID328 (DTP/NCI, 2004)
Several values for one entry are separate records, joined by “and”; a condition that tells them apart may be missing. Equal values may be shown once. Toxic doses and inconclusive results are not listed. The calls were made as follows: active = survival T/C of 150% or more; inactive = T/C below 125% in these data.

Tested on: BDF1 mice, P388 leukemia ip, median survival T/C
Experiment: NCI In Vivo Anticancer Drug Screen. Data for tumor model P388 Leukemia (intraperitoneal) in B6D2F1 (BDF1) mice
Conditions: endpoint: median survival time, higher = longer survival
Procedure, shortened: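 T/C = treated-group survival ÷ vehicle-control survival; tumour transplanted into mice before dosing.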

[1] = dose: 25.0 mg/kg/injection, schedule: Q01DX009 (ip), vehicle: saline
[2] = dose: 50.0 mg/kg/injection, schedule: Q01DX009 (ip), vehicle: saline
[3] = dose: 100.0 mg/kg/injection, schedule: Q01DX009 (ip), vehicle: saline
[4] = dose: 100.0 mg/kg/injection, schedule: Q01DX009 (ip), vehicle: Klucel (hydroxypropylcellulose) (HPC)
[5] = dose: 200.0 mg/kg/injection, schedule: Q01DX009 (ip), vehicle: Klucel (hydroxypropylcellulose) (HPC)
[6] = dose: 50.0 mg/kg/injection, schedule: Q01DX009 (ip), vehicle: saline with Tween-80
[7] = dose: 50.0 mg/kg/injection, schedule: Q04DX003 (ip), vehicle: saline sonified
[8] = dose: 100.0 mg/kg/injection, schedule: Q04DX003 (ip), vehicle: saline sonified
[9] = dose: 200.0 mg/kg/injection, schedule: Q04DX003 (ip), vehicle: saline sonified
[10] = dose: 100.0 mg/kg/injection, schedule: Q04DX003 (ip), vehicle: Klucel (hydroxypropylcellulose) (HPC)
[11] = dose: 200.0 mg/kg/injection, schedule: Q04DX003 (ip), vehicle: Klucel (hydroxypropylcellulose) (HPC)
[12] = dose: 400.0 mg/kg/injection, schedule: Q01DX009 (ip), vehicle: Klucel (hydroxypropylcellulose) (HPC)
[13] = dose: 400.0 mg/kg/injection, schedule: Q04DX003 (ip), vehicle: Klucel (hydroxypropylcellulose) (HPC)
[14] = dose: 12.5 mg/kg/injection, schedule: Q01DX009 (ip), vehicle: saline with Tween-80
[15] = dose: 25.0 mg/kg/injection, schedule: Q01DX009 (ip), vehicle: saline with Tween-80

Measured: T/C

CC1(C)N=C(N)N=C(N)N1c1ccc(OCCNC(=O)Nc2ccc(S(=O)(=O)F)cc2)c(Cl)c1
active: [1] 175 % of control | [2] 180 % of control | dose: 66.0 mg/kg/injection, schedule: Q01DX009 (ip), vehicle: saline 168 % of control | [3] 159 % of control and 200 % of control
inactive: dose: 4.8 mg/kg/injection, schedule: Q01DX009 (ip), vehicle: saline 118 % of control | dose: 66.0 mg/kg/injection, schedule: Q04DX003 (ip), vehicle: saline 123 % of control

C1CC2C(CCCC23OCCO3)C2(C1)OCCO2 (stereo unspecified)
inactive: dose: 50.0 mg/kg/injection, schedule: Q01DX009 (ip), vehicle: Klucel (hydroxypropylcellulose) (HPC) 113 % of control | [4] 86 % of control | dose: 100.0 mg/kg/injection, schedule: Q04DX003 (ip), vehicle: other 100 % of control | [5] 95 % of control | dose: 200.0 mg/kg/injection, schedule: Q04DX003 (ip), vehicle: other 95 % of control | dose: 400.0 mg/kg/injection, schedule: Q04DX003 (ip), vehicle: other 100 % of control

Nc1cc(Nc2cccc(Cl)c2)nc(N)n1
inactive: [6] 86 % of control

Cc1ccc(S(=O)(=O)N(C)c2ccc(C(=O)O)cc2F)cc1
inactive: dose: 75.0 mg/kg/injection, schedule: Q04DX003 (ip), vehicle: saline 100 % of control | dose: 150.0 mg/kg/injection, schedule: Q04DX003 (ip), vehicle: saline 104 % of control | dose: 300.0 mg/kg/injection, schedule: Q04DX003 (ip), vehicle: saline 100 % of control

O=C(O)CC[n+]1c(/C=C/c2cc(Br)c(O)c(Br)c2)sc2ccccc21
inactive: [7] 100 % of control | [8] 100 % of control | [9] 100 % of control

CC(=O)OCCCc1ccccc1
inactive: [4] 109 % of control | [10] 110 % of control | [5] 104 % of control | [11] 100 % of control | [12] 95 % of control | [13] 110 % of control

COc1ccc(C2=CCCC2)cc1
inactive: [10] 108 % of control | [11] 95 % of control | [13] 100 % of control

COc1ccc(CC2OCCC3c4ccccc4NC23)cc1OC (stereo unspecified)
inactive: dose: 100.0 mg/kg/injection, schedule: Q04DX003 (ip), vehicle: saline with Tween-80 93 % of control | dose: 200.0 mg/kg/injection, schedule: Q04DX003 (ip), vehicle: saline with Tween-80 109 % of control | dose: 400.0 mg/kg/injection, schedule: Q04DX003 (ip), vehicle: saline with Tween-80 111 % of control

O=C(O)c1cc2c(Br)cccc2c2cc(C(F)(F)F)ccc12
inactive: [7] 95 % of control | [8] 100 % of control | [9] 100 % of control

COc1ccc([C@@H]2c3cc4c(cc3C[C@H]3COC(=O)[C@@H]32)OCO4)cc1OC
inactive: dose: 6.25 mg/kg/injection, schedule: Q01DX009 (ip), vehicle: saline with Tween-80 104 % of control | [14] 116 % of control | [15] 121 % of control

c1ccc(-c2nc3ccccc3nc2-c2ccc(-c3ccc(-c4nc5ccccc5nc4-c4ccccc4)cc3)cc2)cc1
inactive: [6] 88 % of control | dose: 200.0 mg/kg/injection, schedule: Q01DX009 (ip), vehicle: saline with Tween-80 88 % of control

OC(c1cc(C23CC4CC(CC(C4)C2)C3)nc2c(Cl)cc(Cl)cc12)C1CCCCN1 (stereo unspecified)
inactive: [14] 88 % of control | [15] 90 % of control | [6] 89 % of control and 97 % of control

CCCCCC1(O)C2CCCC1CCC2 (stereo unspecified)
inactive: dose: 50.0 mg/kg/injection, schedule: Q01DX001 (ip), vehicle: saline sonified 105 % of control | dose: 50.0 mg/kg/injection, schedule: Q01DX001 (ip), vehicle: suspension in saline 98 % of control | dose: 100.0 mg/kg/injection, schedule: Q01DX001 (ip), vehicle: saline sonified 105 % of control | dose: 100.0 mg/kg/injection, schedule: Q01DX001 (ip), vehicle: suspension in saline 104 % of control | dose: 200.0 mg/kg/injection, schedule: Q01DX001 (ip), vehicle: suspension in saline 107 % of control

CCC(C(OC(=O)Nc1ccc(Cl)c(Cl)c1)c1ccc(Cl)cc1)C(O)(C(F)(F)F)C(F)(F)F (stereo unspecified)
inactive: [10] 100 % of control | [11] 95 % of control | [13] 91 % of control

CC(=O)Nc1cc(C)c(C)cc1[N+](=O)[O-]
inactive: [4] 95 % of control | [10] 104 % of control | [5] 109 % of control | [11] 90 % of control | [12] 95 % of control | [13] 86 % of control

CC(=O)NC(CCCCNC(=O)OCc1ccccc1)C(=O)O (stereo unspecified)
inactive: dose: 50.0 mg/kg/injection, schedule: Q01DX005 (ip), vehicle: saline with Tween-80 90 % of control | dose: 100.0 mg/kg/injection, schedule: Q01DX005 (ip), vehicle: saline with Tween-80 93 % of control | dose: 200.0 mg/kg/injection, schedule: Q01DX005 (ip), vehicle: saline with Tween-80 89 % of control

COc1ccc(C(=O)C(Br)C(Br)C(=O)O)cc1 (stereo unspecified)
inactive: dose: 12.5 mg/kg/injection, schedule: Q01DX009 (ip), vehicle: saline 100 % of control | [1] 95 % of control and 104 % of control | dose: 25.0 mg/kg/injection, schedule: Q04DX003 (ip), vehicle: saline 100 % of control | [2] 95 % of control and 112 % of control | dose: 50.0 mg/kg/injection, schedule: Q04DX003 (ip), vehicle: saline 109 % of control | [3] 105 % of control | dose: 100.0 mg/kg/injection, schedule: Q04DX003 (ip), vehicle: saline 86 % of control

CN(C)C(=O)c1cccc(COc2ccc(N3C(N)=NC(N)=NC3(C)C)cc2Cl)c1
inactive: dose: 4.0 mg/kg/injection, schedule: Q03HX024 (ip), vehicle: saline 100 % of control | dose: 8.0 mg/kg/injection, schedule: Q03HX016 (ip), vehicle: saline 100 % of control | dose: 16.0 mg/kg/injection, schedule: Q01DX009 (ip), vehicle: saline 90 % of control | dose: 16.0 mg/kg/injection, schedule: Q01DX009 (sc), vehicle: saline 100 % of control | dose: 16.0 mg/kg/injection, schedule: Q03HX016 (ip), vehicle: saline 100 % of control | dose: 16.0 mg/kg/injection, schedule: Q03HX024 (ip), vehicle: saline 118 % of control | dose: 32.0 mg/kg/injection, schedule: Q01DX009 (ip), vehicle: saline 118 % of control | dose: 32.0 mg/kg/injection, schedule: Q01DX009 (sc), vehicle: saline 90 % of control | dose: 32.0 mg/kg/injection, schedule: Q03HX016 (ip), vehicle: saline 118 % of control | dose: 32.0 mg/kg/injection, schedule: Q04DX003 (ip), vehicle: saline 100 % of control | dose: 64.0 mg/kg/injection, schedule: Q01DX001 (ip), vehicle: saline 100 % of control | dose: 64.0 mg/kg/injection, schedule: Q01DX001 (sc), vehicle: saline 90 % of control | dose: 64.0 mg/kg/injection, schedule: Q01DX009 (oral), vehicle: saline 90 % of control | dose: 64.0 mg/kg/injection, schedule: Q04DX003 (ip), vehicle: saline 100 % of control | dose: 64.0 mg/kg/injection, schedule: Q08DX002 (ip), vehicle: saline 100 % of control | dose: 128.0 mg/kg/injection, schedule: Q01DX001 (oral), vehicle: saline 90 % of control | dose: 128.0 mg/kg/injection, schedule: Q01DX001 (sc), vehicle: saline 100 % of control | dose: 128.0 mg/kg/injection, schedule: Q01DX009 (oral), vehicle: saline 95 % of control | dose: 256.0 mg/kg/injection, schedule: Q01DX001 (oral), vehicle: saline 95 % of control | dose: 256.0 mg/kg/injection, schedule: Q01DX001 (sc), vehicle: saline 90 % of control | dose: 512.0 mg/kg/injection, schedule: Q01DX001 (oral), vehicle: saline 90 % of control | dose: 512.0 mg/kg/injection, schedule: Q01DX001 (sc), vehicle: saline 100 % of control | dose: 1024.0 mg/kg/injection, schedule: Q01DX001 (oral), vehicle: saline 95 % of control

Nc1ccc(O)c2ncccc12
inactive: dose: 7.5 mg/kg/injection, schedule: Q01DX010 (ip), vehicle: saline 115 % of control | dose: 15.0 mg/kg/injection, schedule: Q01DX010 (ip), vehicle: saline 110 % of control
